Some test systems named below: SNB-78; DLD-1; M19-MEL; XF498; LXFL 529; DMS-273; DMS-114; HOP-18; RXF 631.
Experiment in all cases: NCI tumour cell line growth inhibition, 48 h

Molecules are shown by their SMILES.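 Step 1: Grow cells in 96-well plates. Step 2: Expose to compound for 48 hours at 5 concentrations. Step 3: Interpolate endpoints linearly; if unreached, use highest concentration. Abbreviation: GI50, concentration required for 50% inhibition of growth.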 Calls of active or inactive are those of the source. Cut-off read from the data, not from the text of the source: active = GI50 up to about 1.1 µM and inactive = higher.

Take `CC(=O)/C(=N\O)C(=O)NCCc1ccccc1`: the GI50 is > 100 µM (inactive) in the test with SNB-78; 60.4 µM (inactive) with DLD-1; > 100 µM (inactive) with M19-MEL; 31.6 µM (inactive) with XF498; > 100 µM (inactive) in the test with LXFL 529; 55.1 µM (inactive) with DMS-273. The figures for the GI50 in the test on DMS-114 and in the test with HOP-18 were 43.7 µM (inactive) and > 100 µM (inactive), respectively.

For the compound `Cn1cnc([N+](=O)[O-])c1Sc1nnc(-c2ccc(Cl)cc2)n1C`, the GI50 with SNB-78 is 13.2 µM (inactive); in the test with RXF 631 it was 15.6 µM (inactive); in the test on DLD-1 it was 11 µM (inactive); in the test on M19-MEL it was 14.1 µM (inactive); in the test with LXFL 529 it was 10.4 µM (inactive); in the test with DMS-273 it was 16.4 µM (inactive). For the same compound, the GI50 in the test on DMS-114 is 15.8 µM (inactive); in the test on HOP-18, 5.25 µM (inactive).

In the case of `C[N+](C)(Cc1ccc(NC(=O)CCCC(=O)ON2C(=O)CCC2=O)cc1)c1ccccc1`, the GI50 in the test on DLD-1 is < 0.01 µM (active); in the test with M19-MEL, < 0.01 µM (active); with XF498, > 1 µM (active); with LXFL 529, < 0.01 µM (active); in the test with DMS-273, < 0.01 µM (active); in the test on DMS-114, > 1 µM (active). Moreover, in the test with HOP-18, the GI50 was < 0.01 µM (active).

`C[C@@H]1O[C@@H](O[C@H]2CC[C@]3(C=O)[C@H]4CC[C@]5(C)[C@@H](c6ccc(=O)oc6)CC[C@]5(O)[C@@H]4CC[C@]3(O)C2)[C@H](O)[C@H](O)[C@H]1O[C@@H]1O[C@H](CO)[C@@H](O)[C@H](O)[C@H]1O` [HELLEBRIN]: the GI50 with SNB-78 was 0.0375 µM (active); in the test with M19-MEL, 0.0375 µM (active); with XF498, 0.0375 µM (active); in the test on DMS-273 it was 0.00775 µM (active); in the test on DMS-114, 0.00208 µM (active); in the test on HOP-18 it was 0.00518 µM (active).

For the compound `O=[N+]([O-])c1ccc(C(O)/C(=N/O)c2nc3ccc(Cl)cc3nc2O)cc1` (stereo unspecified), the GI50 in the test with DLD-1, with M19-MEL, in the test on XF498, in the test on LXFL 529, with DMS-273 and in the test on DMS-114 was > 100 µM (inactive) in each case.

For `CC(C)(CN1C(=O)C(Cl)=C(Cl)C1=O)CN1C(=O)C(Cl)=C(Cl)C1=O`, the GI50 in the test on SNB-78 is 19 µM (inactive); in the test with DLD-1 it was 3.38 µM (inactive); with M19-MEL, 7.66 µM (inactive); with LXFL 529 it was 6.5 µM (inactive); in the test with DMS-273, 6.92 µM (inactive); in the test on DMS-114, 9.75 µM (inactive). Besides, the GI50 with HOP-18 is 19.4 µM (inactive).

As to `CCOC(=O)CCCO`, the GI50 in the test with RXF 631, in the test with DLD-1, in the test with XF498, in the test with LXFL 529 and in the test with HOP-18 was > 100 µM (inactive) in each case.

Turning to `Cc1cc(NC(=O)NC(=O)c2ccccc2NC(=O)CN(C)C)ccc1Oc1ncc(Br)cn1`, the GI50 is 19.2 µM (inactive) with SNB-78; 8.07 µM (inactive) in the test with DLD-1; 36.8 µM (inactive) with M19-MEL; 19.7 µM (inactive) with XF498; 13.1 µM (inactive) in the test with LXFL 529; 3.74 µM (inactive) in the test on DMS-273. Also, the GI50 in the test with DMS-114 is 3.07 µM (inactive).

On to `COc1cc([C@@H]2c3cc4c(cc3[C@@H](OC(=O)c3ccc(N)cc3)C3COC(=O)[C@@H]32)OCO4)cc(OC)c1O` (stereo partly specified), for which the GI50 in the test with SNB-78 was 15.2 µM (inactive); in the test on RXF 631, 9.1 µM (inactive); in the test with DLD-1, 5.6 µM (inactive); in the test on M19-MEL it was 4.99 µM (inactive); in the test with LXFL 529, 14.8 µM (inactive); in the test on DMS-273, 3.43 µM (inactive). Also, the GI50 with HOP-18 was > 95.1 µM (inactive).

For the compound `CCSC(=O)C1(C)OC2CCCCC2C1=O` (stereo unspecified), the GI50 with SNB-78, in the test on DLD-1, with M19-MEL, in the test with LXFL 529, with DMS-273 and with DMS-114 was > 100 µM (inactive) in each case. Also, the GI50 with HOP-18 is > 100 µM (inactive).

With `NC12CC3CC(C1)CC(C(=O)O)(C3)C2`, the GI50 in the test on SNB-78, in the test with DLD-1, in the test with M19-MEL, in the test with XF498, in the test with LXFL 529 and with DMS-273 was > 100 µM (inactive) in each case. The GI50 in the test with DMS-114 and in the test on HOP-18 was > 100 µM (inactive) each time.

With `Cc1ccc(C2(C)NC(=S)N(NC(N)=S)C2=S)cc1` (stereo unspecified), the GI50 in the test on RXF 631 is > 100 µM (inactive); in the test on DLD-1 it was 71.1 µM (inactive); in the test on M19-MEL, > 100 µM (inactive); in the test with XF498 it was > 100 µM (inactive); with LXFL 529 it was 71.8 µM (inactive); with DMS-273 it was > 100 µM (inactive). In addition, the GI50 with DMS-114 was 73.6 µM (inactive).

As to `COc1cc2ccnc(-c3n[nH]c4cc(OC)c(OC)cc34)c2cc1OC`, the GI50 in the test on RXF 631 is 33 µM (inactive); in the test on M19-MEL it was > 100 µM (inactive); in the test with XF498, > 100 µM (inactive); in the test with LXFL 529, > 100 µM (inactive); with DMS-273, > 100 µM (inactive); with DMS-114, > 100 µM (inactive). Moreover, in the test with HOP-18, the GI50 was > 100 µM (inactive).

For the compound `CCN1C(=O)C(N=[N+]=[N-])(c2ccccc2)C(=O)c2ccccc21` (stereo unspecified), the GI50 in the test on SNB-78 is 98.2 µM (inactive); in the test on DLD-1, > 100 µM (inactive); with M19-MEL it was 43.1 µM (inactive); in the test with XF498, 0.946 µM (active); in the test with LXFL 529, 38.9 µM (inactive); in the test on DMS-273, > 100 µM (inactive). In addition, the GI50 was 41.7 µM (inactive) with DMS-114 and > 100 µM (inactive) in the test on HOP-18.

On to `O=C(Nc1cccc2c1C(=O)c1c(NC(=O)c3ccccc3)ccc(Nc3cccc4c3C(=O)c3ccccc3C4=O)c1C2=O)c1ccccc1`, for which the GI50 in the test on SNB-78, in the test with RXF 631, with DLD-1, with M19-MEL, with LXFL 529 and in the test on DMS-273 was > 100 µM (inactive) in each case. Further, the GI50 with DMS-114 and in the test with HOP-18 was > 100 µM (inactive) each time.

Regarding `Cc1nc(-n2nc(-c3ccccc3)cc2-c2ccccc2)sc1C(=O)/C=C/c1ccc(/C=C/C(=O)c2sc(-n3nc(-c4ccccc4)cc3-c3ccccc3)nc2C)cc1`, the GI50 with SNB-78 was 33.4 µM (inactive); in the test on RXF 631, 28.1 µM (inactive); in the test on DLD-1 it was 20.8 µM (inactive); in the test with M19-MEL it was 25.9 µM (inactive); in the test on XF498 it was 21.8 µM (inactive); in the test on LXFL 529 it was 27.7 µM (inactive). The GI50 in the test with DMS-273 was 21.1 µM (inactive); in the test with DMS-114, 36.9 µM (inactive).

As to `O=C1CC(c2c[nH]c3ccccc23)C(=O)N1c1ccccc1` (stereo unspecified), the GI50 with SNB-78, in the test on DLD-1, in the test on M19-MEL, in the test on XF498, in the test with LXFL 529 and in the test with DMS-273 was > 100 µM (inactive) in each case.

Take `O=C(c1nc2ccccc2nc1O)C(O)c1ccco1` (stereo unspecified): the GI50 in the test on SNB-78 is > 100 µM (inactive); in the test with M19-MEL it was > 100 µM (inactive); in the test with XF498 it was > 100 µM (inactive); in the test on LXFL 529 it was 86.3 µM (inactive); in the test with DMS-273, > 100 µM (inactive); with DMS-114 it was 52.6 µM (inactive).

As to `COc1ccc(CN2C(=O)C(Cc3cc(OC)c(OC)c(C)c3OC)N(C(=O)OC(C)C)C(=O)/C2=C/c2cc(OC)c(OC)c(C)c2OC)cc1` (stereo unspecified), the GI50 in the test on RXF 631 is > 100 µM (inactive); in the test with DLD-1, > 100 µM (inactive); with M19-MEL, > 100 µM (inactive); with LXFL 529, 12.7 µM (inactive); with DMS-273, 23.6 µM (inactive); in the test with DMS-114 it was 24.9 µM (inactive). Besides, the GI50 with HOP-18 is 16.3 µM (inactive).

As for `C=CCN1C2Cc3cc(OC)c(OC)cc3C1Cc1cc(OC)c(OC)cc12`, the GI50 in the test with SNB-78, with DLD-1, in the test on XF498 and in the test on LXFL 529 was > 100 µM (inactive) throughout.

In the case of `COc1ccc2c3c([nH]c2c1CC=C(C)C)C(=O)C=C(C)C3=O`, the GI50 in the test on DLD-1 was > 25 µM (inactive); with M19-MEL, 11.6 µM (inactive); in the test on XF498, > 25 µM (inactive); in the test on LXFL 529 it was 15.8 µM (inactive); in the test with DMS-273, > 25 µM (inactive); in the test with DMS-114, 18.3 µM (inactive). Further, in the test on HOP-18, the GI50 is 12.1 µM (inactive).

For the compound `Cc1cc(C(C)C)cc(=O)c(O)c1`, the GI50 in the test with SNB-78, in the test on RXF 631, in the test on DLD-1, with M19-MEL, in the test with LXFL 529 and with DMS-273 was > 100 µM (inactive) each time. Also, the GI50 in the test with HOP-18 was > 100 µM (inactive).

Regarding `C/C(CC(=O)Nc1ccc([N+](=O)[O-])cc1)=N/N=C(N)N`, the GI50 with SNB-78 is > 100 µM (inactive); with RXF 631 it was > 100 µM (inactive); with DLD-1, > 100 µM (inactive); in the test with M19-MEL, > 100 µM (inactive); with XF498 it was > 100 µM (inactive); with LXFL 529, 82 µM (inactive). In addition, the GI50 in the test with DMS-273 and with DMS-114 was > 100 µM (inactive) each time.

Regarding `O=c1c(Cl)c(Cl)cnn1CCCl`, the GI50 in the test on SNB-78 is 11.8 µM (inactive); in the test with DLD-1 it was 1.47 µM (inactive); in the test with M19-MEL, 2.67 µM (inactive); in the test on XF498, 3 µM (inactive); in the test on LXFL 529, 1.62 µM (inactive); in the test on DMS-273, 5.27 µM (inactive). Further, the GI50 with DMS-114 was 4.3 µM (inactive).

With `CCOC(=O)/C([O-])=C(\C(=O)OCC)[n+]1c(C)n(C)c2ccccc21`, the GI50 in the test with SNB-78, with DLD-1, with M19-MEL, in the test on LXFL 529, with DMS-273 and with DMS-114 was > 100 µM (inactive) throughout. Moreover, the GI50 with HOP-18 was > 100 µM (inactive).

Regarding `O=C(NO)C(=O)Nc1cc(Cl)ccc1Cl`, the GI50 in the test with SNB-78 is > 100 µM (inactive); with RXF 631, 62.7 µM (inactive); with DLD-1 it was > 100 µM (inactive); with M19-MEL, > 100 µM (inactive); with LXFL 529, > 100 µM (inactive); with DMS-273, 42.7 µM (inactive). The GI50 is 69.3 µM (inactive) with DMS-114 and > 100 µM (inactive) in the test with HOP-18.
